This test deals with T1, HMG-CoA reductase (HMGR) (Rattus norvegicus, UniProt P51639).
T1 construct: Microsomes prepared from liver of rats administered with cholestyramine; from tissue
T1 sequence (P51639 1-887): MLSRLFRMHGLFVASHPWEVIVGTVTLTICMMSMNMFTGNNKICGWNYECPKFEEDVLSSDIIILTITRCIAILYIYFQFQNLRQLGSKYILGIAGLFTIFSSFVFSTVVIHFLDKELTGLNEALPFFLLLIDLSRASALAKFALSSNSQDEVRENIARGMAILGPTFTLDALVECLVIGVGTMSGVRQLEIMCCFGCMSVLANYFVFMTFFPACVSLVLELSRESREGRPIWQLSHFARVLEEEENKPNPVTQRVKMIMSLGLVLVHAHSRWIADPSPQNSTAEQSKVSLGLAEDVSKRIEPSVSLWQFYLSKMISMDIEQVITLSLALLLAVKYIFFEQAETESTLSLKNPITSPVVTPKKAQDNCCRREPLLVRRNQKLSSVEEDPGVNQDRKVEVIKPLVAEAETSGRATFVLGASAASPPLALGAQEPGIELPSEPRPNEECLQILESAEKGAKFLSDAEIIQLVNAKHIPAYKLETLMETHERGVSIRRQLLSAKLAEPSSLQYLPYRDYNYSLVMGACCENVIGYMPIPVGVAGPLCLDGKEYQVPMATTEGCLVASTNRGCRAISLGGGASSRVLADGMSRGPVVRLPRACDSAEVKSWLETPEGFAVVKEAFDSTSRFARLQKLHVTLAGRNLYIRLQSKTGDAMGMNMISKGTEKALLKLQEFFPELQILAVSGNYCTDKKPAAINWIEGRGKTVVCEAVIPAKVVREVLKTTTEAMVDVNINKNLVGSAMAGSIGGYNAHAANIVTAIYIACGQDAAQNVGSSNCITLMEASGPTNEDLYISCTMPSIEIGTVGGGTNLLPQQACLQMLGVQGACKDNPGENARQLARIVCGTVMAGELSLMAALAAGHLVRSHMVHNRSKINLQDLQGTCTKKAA
The experiment in a line: Inhibitory activity against rat hepatic microsomal HMG-CoA reductase (HMGR). The format is biochemical. To be noted: rat liver microsomes, ¹⁴C-HMG-CoA substrate, 10 minutes incubation. The protocol:
Experiment [Inhibitory Activity against Rat Hepatic Microsomal HMG-CoA reductase (HMGR)]
HMGR activities of microsomes were measured in accordance with the method of N. L. Young et al., Methods in Enzymology, 71, 498 (1981).
Microsomes prepared from liver of rats administered with cholestyramine were mixed with a solution of the compounds to be tested in dimethyl sulfoxide and ¹⁴C-HMG-CoA (substrate). After the mixture was incubated for 10 minutes, the reaction was quenched with 6N hydrochloric acid and the mixture was allowed to stand at 37°C for 15 minutes, followed by centrifugation. The supernatant was spotted on thin layer chromatography (TLC; Kieselgel 60F254 manufactured by Merck) and developed with toluene/acetone (1:1). The spot of ¹⁴C-mevalonolactone was collected and the amount of isotope was measured with a scintillation counter (Type 4640 TRI-CARB. manufactured by Paccard) to calculate an amount of the formed mevalonolactone. By comparing amounts of the formed mevalonolactone in the group treated with test compounds and the control group (without test compounds), HMGR activity inhibition rates of the test compounds were calculated.

This is an account of results in patent EP0420266A2, “Chromene or thiochromene derivatives, process for preparing the same, intermediate therefor, pharmaceutical compositions containing said derivatives and the use of said derivatives” (TANABE SEIYAKU CO., LTD., priority 1989, dated 1991).

Each structure is given as a SMILES string.

With `CCC1(CC)Sc2ccccc2C(c2ccc(F)cc2)=C1/C=C/[C@@H](O)C[C@@H](O)CC(=O)[O-].[Na+]` (relative stereo) [C, (+)-(3R*,5S*)-(E)-7-[4-(4-Fluorophenyl)-2,2-diethyl-2H-thiochromen-3-yl]-3,5-dihydroxy-6-heptenoic acid sodium salt], the “HMGR Inhibition (%)” value was 90% (Conc. of Compounds 10⁻⁶ M) and 45% (Conc. of Compounds 10⁻⁷ M).

`CCC1(CC)Oc2ccccc2C(c2ccc(F)cc2)=C1/C=C/[C@@H](O)C[C@@H](O)CC(=O)[O-].[Na+]` (relative stereo) [A, (3R*,5S*)-(E)-7-[4-(4-Fluorophenyl)-2,2-diethyl-2H-chromen-3-yl]-3,5-dihydroxy-6-heptenoic acid sodium salt]: the “HMGR Inhibition (%)” value by setting is: (Conc. of Compounds 10⁻⁶ M) 100%; (Conc. of Compounds 10⁻⁷ M) 67%.

Regarding `CCC1(CC)Oc2ccccc2C(c2ccc(F)cc2)=C1/C=C/[C@H]1C[C@H](O)CC(=O)O1` (relative stereo) [B, Trans-(E)-6-[2-(4-(4-fluorophenyl)-2,2-diethyl-2H-chromen-3-yl)-1-ethenyl]-3,4,5,6-tetrahydro-4-hydroxy-2H-pyran-2-one], the “HMGR Inhibition (%)” value runs as follows: (Conc. of Compounds 10⁻⁶ M) 84%; (Conc. of Compounds 10⁻⁷ M) 32%.
